# Source: patent US12145920B2, “Lanthionine c-like protein 2 ligands, cells prepared therewith, and therapies using same” (NImmune Biopharma, Inc., priority 2019, dated 2024)
# “Also recorded” adds a separate entry of the source.
# Tests used:
# CD4+ T cells = test: Immune effects in CD4+ splenocytes, flow cytometry (wild type); type: cell-based, C57BL/6 mice
# From the text: Cell culture. Spleens were excised from C57BL/6 mice and assessed in wild-type and LANCL2 deficient states. Spleens were crushed between the frosted ends of microscope slides and filtered to provide a cellular suspension. Red blood cells were lysed through hypotonic lysis. Remaining cells were washed and filtered. CD4+ T cells were enriched within the suspension using magnetic sorting based negative selection. Cells were collected and plated within 96 well plates coated with anti-CD3 and cultured in the presence of BT-63 at 0, 0.1, 1 and 10 micromolar or BT-104A, BT-104B, or BT-104C at 0.1 micromolar for 48 h. During the last 6 h of culture, cells were stimulated with phorbol 12-myristate-13-acetate (PMA) and ionomycin.
# Immunological analysis. Cells were collected from 96 well plates and stained with a cocktail of antibodies for immunophenotyping by flow cytometry. Culture supernatant was collected and assayed for cytokine concentrations by cytometric bead array. Data was captured on a BD FACS Celesta and analyzed using FacsDiva.
# [1] = system: colonic CD4+ T cells from Mdr1a-/- mice; test: Gene expression in colonic CD4+ T cells of treated Mdr1a-/- mice; type: in vivo; conditions: oral treatment, 10 weeks of age
# From the text: To identify signaling pathways modulated by BT-63 in vivo, we will isolate colonic CD4+ T cells from vehicle- and BT-63-treated Mdr1a−/− mice at presentation of colitis at 10 weeks of age. […] Meanwhile, expression of Pten and Ph1pp1 will increase. […] Cells will also be differentiated in the presence of inhibitors for PTEN (SF1670) or STATS (STAT5i). In the Treg differentiation media containing both IL-2 or IL-12, the addition of STAT5i will prevent the effects of BT-63 on CD25+ FOXP3+ and CD25+ Tbet+ cells. In contrast, SF1670 only will prevent effects of BT-63 on CD25+ Tbet+ cells in IL-2 containing media.
# MDR1a-/- mice = test: MDR1a-/- chronic model of IBD; type: in vivo
# Procedure: MDR1a−/− model. Mice deficient in MDR1a spontaneously develop colitis. MDR1a−/− began receiving BT-63 treatment (oral, 20 mg/kg) at 6 weeks of age and continued treatment until 10 weeks of age. Mice were weighed and scored weekly. Treatment administration. BT-63 was prepared within a 0.5% methylcellulose (12-15 cP) solution. Dosage used was 20 mg/kg delivered once daily. Mice were weighed on a weekly basis to update dosage formulation. Dosage was calculated based off mean body weights for each gender. Oral dosage was delivered by orogastric gavage of dosage in 0.2 mL volume. Flow Cytometry. […]
# collagenase (300U/mL) and DNase (50U/mL) for digestion. Tissues were digested for 60 minutes under stirring at 37° C. Resultant cellular suspensions were filtered through 100 μm strainers, centrifuged (300×g, 8 min), and washed in fresh RPMI. Following filtration of the resulting single cell suspensions, immune cells were purified by Percoll gradient of cell-containing 40% Percoll overlayed onto 70% Percoll solution. After centrifugation, interphase was collected and washed to obtain enriched colonic lamina propria cell fractions. Cells were labeled with mixtures of extracellular (CD45, CD3, CD4, CD8, CD19, NK1.1, CD25, F4/80, CD11b, Gr1, CX3CR1, CD64) and intracellular (Tbet, RORyT, FOXP3, IFNγ, IL17, IL10) antibodies in a sequential live staining in 96-well plates. Data was acquired using a FACS Celesta flow cytometer with FACSDiva software.
# [2] = wild-type cells, 0.1, 1 and 10 μM, 48 h
# [3] = colonic lamina propria, four weeks oral 20 mg/kg
# [4] = spleen, four weeks oral 20 mg/kg
smiles,measurement,setting,value
"O=C(CN1CCN(C(=O)c2cccc(-c3nc4ccccc4[nH]3)n2)CC1)c1ccccc1 [BT-63, 2-(4-(6-(1H-benzo[d]imidazol-2-yl)picolinoyl)piperazin-1-yl)-1-phenylethanone]",FOXP3+ CD4+ T cells,"CD4+ T cells; 0.1, 1 and 10 micromolar, FIG. 4A",significant increase
same,proportions of IFNγ+ CD4+ T cells,CD4+ T cells; [2],reduced; also recorded: significant decrease
same,proportions of IL10+ FOXP3+ CD4+ T cells,CD4+ T cells; [2],increased
same,proportions of TNFa-producing CD4+ T cells,CD4+ T cells; [2],reduced
same,expression of Foxo1,[1],significantly higher expression
same,expression of Ph1pp1,[1],increase
same,expression of Pten,[1],increase
same,expression of Stat5a,[1],significantly higher expression
same,proportions of regulatory CD4+ CD25+ T cells,"MDR1a-/- mice; colon, four weeks oral 20 mg/kg",increased
same,proportions of Th1,MDR1a-/- mice; [3],reduces
same,proportions of Th17,MDR1a-/- mice; [3],reduces
same,proportions of neutrophils,MDR1a-/- mice; [3],reduces
same,splenic CD25+ Tregs,MDR1a-/- mice; [4],increased
same,splenic Th1 cells,MDR1a-/- mice; [4],decreased
same,maximal observed reduction of disease activity,"MDR1a-/- mice; week four of treatment, oral 20 mg/kg",90%
